From US9175003B2, “Substituted azoanthracene derivatives and intermediates for preparation thereof” (TransTech Pharma, LLC, priority 2009, dated 2015)

Each compound was assayed against human GLP-1 receptor (Homo sapiens (Human), UniProt P43220). Conditions: read-out: Mean EC50; cAMP, HTRF detection, 30 min at 37° C., HEK-293 cells expressing cloned human GLP-1 receptor.
Sequence of human GLP-1 receptor (P43220 24-463): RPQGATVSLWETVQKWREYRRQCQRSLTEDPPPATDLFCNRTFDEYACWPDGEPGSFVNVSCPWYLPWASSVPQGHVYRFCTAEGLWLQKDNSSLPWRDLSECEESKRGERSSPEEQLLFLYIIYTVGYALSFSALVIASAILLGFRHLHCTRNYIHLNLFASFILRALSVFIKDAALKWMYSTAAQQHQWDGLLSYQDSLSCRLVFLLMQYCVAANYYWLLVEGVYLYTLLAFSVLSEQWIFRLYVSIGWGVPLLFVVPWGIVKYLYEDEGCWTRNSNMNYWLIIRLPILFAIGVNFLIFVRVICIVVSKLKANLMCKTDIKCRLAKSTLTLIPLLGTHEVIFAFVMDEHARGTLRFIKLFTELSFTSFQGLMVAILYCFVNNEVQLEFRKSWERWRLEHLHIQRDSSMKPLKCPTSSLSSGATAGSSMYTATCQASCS
In the case of `Cc1nc(C(=O)N2Cc3cc4c(cc3C[C@H]2C(=O)N[C@@H](Cc2ccc(-c3ccnc(C)c3C)cc2)C(=O)O)OC[C@H](c2ccc(OCc3ccc(Cl)c(Cl)c3)cc2)O4)c(C)o1` [Example 216, (S)-2-{[(3S,8S)-3-[4-(3,4-Dichloro-benzyloxy)-phenyl]-7-(2,5-dimethyl-oxazole-4-carbonyl)-2,3,6,7,8,9-hexahydro-[1,4]dioxino[2,3-g]isoquinoline-8-carbonyl]-amino}-3-[4-(2,3-dimethyl-pyridin-4-yl)-phenyl]-propionic acid], the EC50 is reported as 17 nM.
`Cc1nccc(-c2ccc(C[C@H](NC(=O)[C@@H]3Cc4cc5c(cc4CN3C(=O)NC3(C)CCC3)O[C@@H](c3ccc(OCc4ccc(Cl)c(Cl)c4)cc3)CO5)C(=O)O)cc2)c1C` [Example 320, (S)-2-{[(3S,8S)-3-[4-(3,4-Dichloro-benzyloxy)-phenyl]-7-(1-methyl-cyclobutylcarbamoyl)-2,3,6,7,8,9-hexahydro-[1,4]dioxino[2,3-g]isoquinoline-8-carbonyl]-amino}-3-[4-(2,3-dimethyl-pyridin-4-yl)-phenyl]-propionic acid] gave an EC50 of 45 nM.
Compound `CC[C@@H](c1ccccc1)N1Cc2cc3c(cc2C[C@H]1C(=O)N[C@@H](Cc1ccc(-c2ccnc(C)c2C)cc1)C(=O)O)OC[C@H](c1ccc(OCCC(C)(C)C)cc1)O3` [Example 168, (S)-2-{[(3S,8S)-3-[4-(3,3-Dimethyl-butoxy)-phenyl]-7-((S)-1-phenyl-propyl)-2,3,6,7,8,9-hexahydro-[1,4]dioxino[2,3-g]isoquinoline-8-carbonyl]-amino}-3-[4-(2,3-dimethyl-pyridin-4-yl)-phenyl]-propionic acid] has an EC50 of 114 nM.
With `CC[C@@H](c1ccccc1)N1Cc2cc3c(cc2C[C@H]1C(=O)N[C@@H](Cc1ccc(-c2ccnc(C)c2C)cc1)C(=O)O)OC[C@H](c1ccc(OCc2ccc(Cl)cc2)cc1)O3` [Example 148, (S)-2-{[(3S,8S)-3-[4-(4-Chloro-benzyloxy)-phenyl]-7-((S)-1-phenyl-propyl)-2,3,6,7,8,9-hexahydro-[1,4]dioxino[2,3-g]isoquinoline-8-carbonyl]-amino}-3-[4-(2,3-dimethyl-pyridin-4-yl)-phenyl]-propionic acid] the EC50 was 13 nM.
In the case of `Cc1nccc(-c2ccc(C[C@H](NC(=O)[C@@H]3Cc4cc5c(cc4CN3C(=O)c3ccccc3)O[C@@H](c3ccc(O[C@H]4CC[C@H](C)CC4)cc3)CO5)C(=O)O)cc2)c1C` [Example 306, (S)-2-({(3S,8S)-7-Benzoyl-3-[4-(trans-4-methyl-cyclohexyloxy)-phenyl]-2,3,6,7,8,9-hexahydro-[1,4]dioxino[2,3-g]isoquinoline-8-carbonyl}-amino)-3-[4-(2,3-dimethyl-pyridin-4-yl)-phenyl]-propionic acid], the EC50 is reported as 103 nM.
`Cc1nc(C(=O)N2Cc3cc4c(cc3C[C@H]2C(=O)N[C@@H](Cc2ccc(-c3ccnc(C)c3C)cc2)C(=O)O)OC[C@H](c2ccc(OCCc3ccc(Cl)cc3)cc2)O4)c(C)o1` [Example 371, (S)-2-{[(3S,8S)-3-{4-[2-(4-Chloro-phenyl)-ethoxy]-phenyl}-7-(2,5-dimethyl-oxazole-4-carbonyl)-2,3,6,7,8,9-hexahydro-[1,4]dioxino[2,3-g]isoquinoline-8-carbonyl]-amino}-3-[4-(2,3-dimethyl-pyridin-4-yl)-phenyl]-propionic acid] gave an EC50 of 36 nM.
In the case of `Cc1cccc(NC(=O)N2Cc3cc4c(cc3C[C@H]2C(=O)N[C@@H](Cc2ccc(Oc3ccnc(C)c3C)cc2)C(=O)O)OC[C@H](c2ccc(OCc3ccc(Cl)c(Cl)c3)cc2)O4)c1` [Example 345, (S)-2-({(3S,8S)-3-[4-(3,4-Dichloro-benzyloxy)-phenyl]-7-m-tolylcarbamoyl-2,3,6,7,8,9-hexahydro-[1,4]dioxino[2,3-g]isoquinoline-8-carbonyl}-amino)-3-[4-(2,3-dimethyl-pyridin-4-yloxy)-phenyl]-propionic acid], the EC50 is reported as 255 nM.
For `Cc1nccc(-c2ccc(C[C@H](NC(=O)[C@@H]3Cc4cc5c(cc4CN3C(=O)[C@@H]3CCN(C(=O)OC(C)(C)C)C3)O[C@@H](c3ccc(OCc4ccc(Cl)c(Cl)c4)cc3)CO5)C(=O)O)cc2)c1C` [Example 281, (R)-3-{(3S,8S)-8-{(S)-1-Carboxy-2-[4-(2,3-dimethyl-pyridin-4-yl)-phenyl]-ethylcarbamoyl}-3-[4-(3,4-dichloro-benzyloxy)-phenyl]-2,3,8,9-tetrahydro-6H-[1,4]dioxino[2,3-g]isoquinoline-7-carbonyl}-pyrrolidine-1-carboxylic acid tert-butyl ester], the EC50 was 5 nM.
`Cc1nc(C(=O)N2Cc3cc4c(cc3C[C@H]2C(=O)N[C@@H](Cc2ccc(-c3ccnc(C)c3C)cc2)C(=O)O)OC[C@H](c2ccc(OCC3(c5ccc(Cl)cc5)CC3)cc2)O4)c(C)o1` [Example 378, (S)-2-{[(3S,8S)-3-{4-[1-(4-Chloro-phenyl)-cyclopropylmethoxy]-phenyl}-7-(2,5-dimethyl-oxazole-4-carbonyl)-2,3,6,7,8,9-hexahydro-[1,4]dioxino[2,3-g]isoquinoline-8-carbonyl]-amino}-3-[4-(2,3-dimethyl-pyridin-4-yl)-phenyl]-propionic acid] gave an EC50 of 282 nM.
With `Cc1nc(C(=O)N2Cc3cc4c(cc3C[C@H]2C(=O)N[C@@H](Cc2ccc(-c3ccnc(C)c3C)cc2)C(=O)O)OC[C@H](c2ccc(OCc3cncc(Cl)c3)cc2)O4)c(C)o1` [Example 376, (S)-2-{[(3S,8S)-3-[4-(5-Chloro-pyridin-3-ylmethoxy)-phenyl]-7-(2,5-dimethyl-oxazole-4-carbonyl)-2,3,6,7,8,9-hexahydro-[1,4]dioxino[2,3-g]isoquinoline-8-carbonyl]-amino}-3-[4-(2,3-dimethyl-pyridin-4-yl)-phenyl]-propionic acid] the EC50 was 38 nM.
Compound `CC[C@@H](c1ccccc1)N1Cc2cc3c(cc2C[C@H]1C(=O)N[C@@H](Cc1ccc(-c2ccnc(C)c2C)cc1)C(=O)O)OC[C@H](c1ccc(OCCN(C)C)cc1)O3` [Example 165, (S)-2-{[(3S,8S)-3-[4-(2-Dimethylamino-ethoxy)-phenyl]-7-((S)-1-phenyl-propyl)-2,3,6,7,8,9-hexahydro-[1,4]dioxino[2,3-g]isoquinoline-8-carbonyl]-amino}-3-[4-(2,3-dimethyl-pyridin-4-yl)-phenyl]-propionic acid] has an EC50 of 396 nM.
`CC[C@@H](c1ccccc1)N1Cc2cc3c(cc2C[C@H]1C(=O)N[C@@H](Cc1ccc(-c2ccnn2C)cc1)C(=O)O)OC[C@H](c1ccc(OCc2ccc(Cl)c(Cl)c2)cc1)O3` [Example 191, (S)-2-{[(3S,8S)-3-[4-(3,4-Dichloro-benzyloxy)-phenyl]-7-((S)-1-phenyl-propyl)-2,3,6,7,8,9-hexahydro-[1,4]dioxino[2,3-g]isoquinoline-8-carbonyl]-amino}-3-[4-(2-methyl-2H-pyrazol-3-yl)-phenyl]-propionic acid] gave an EC50 of 66 nM.
Work on `Cc1nccc(Oc2ccc(C[C@H](NC(=O)[C@@H]3Cc4cc5c(cc4CN3C(=O)NC(C)(C)c3ccccc3)O[C@@H](c3ccc(OCc4ccc(Cl)c(Cl)c4)cc3)CO5)C(=O)O)cc2)c1C` [Example 348, (S)-2-{[(3S,8S)-3-[4-(3,4-Dichloro-benzyloxy)-phenyl]-7-(1-methyl-1-phenyl-ethylcarbamoyl)-2,3,6,7,8,9-hexahydro-[1,4]dioxino[2,3-g]isoquinoline-8-carbonyl]-amino}-3-[4-(2,3-dimethyl-pyridin-4-yloxy)-phenyl]-propionic acid] yielded an EC50 of 262 nM.
For `Cc1nccc(-c2ccc(C[C@H](NC(=O)[C@@H]3Cc4cc5c(cc4CN3C(=O)NC(C)(C)C)O[C@@H](c3ccc(OCc4ccc(Cl)c(Cl)c4)cc3)CO5)C(=O)O)cc2)c1C` [Example 251, (S)-2-({(3S,8S)-7-tert-Butylcarbamoyl-3-[4-(3,4-dichloro-benzyloxy)-phenyl]-2,3,6,7,8,9-hexahydro-[1,4]dioxino[2,3-g]isoquinoline-8-carbonyl}-amino)-3-[4-(2,3-dimethyl-pyridin-4-yl)-phenyl]-propionic acid], the EC50 was 144 nM.
Work on `Cc1nccc(Oc2ccc(C[C@H](NC(=O)[C@@H]3Cc4cc5c(cc4CN3S(=O)(=O)C(C)C)O[C@@H](c3ccc(OCc4ccc(Cl)c(Cl)c4)cc3)CO5)C(=O)O)cc2)c1C` [Example 436, (S)-2-{[(3S,8S)-3-[4-(3,4-Dichloro-benzyloxy)-phenyl]-7-(propane-2-sulfonyl)-2,3,6,7,8,9-hexahydro-[1,4]dioxino[2,3-g]isoquinoline-8-carbonyl]-amino}-3-[4-(2,3-dimethyl-pyridin-4-yloxy)-phenyl]-propionic acid] yielded an EC50 of 320 nM.
`Cc1nc(NC(=O)C(F)(F)F)sc1S(=O)(=O)N1Cc2cc3c(cc2C[C@H]1C(=O)N[C@@H](Cc1ccc(-c2ccc(C#N)cc2)cc1)C(=O)O)OCC(c1ccc(OCc2ccc(Cl)c(Cl)c2)cc1)O3` (stereo in doubt) [Example 70, (S)-3-(4′-Cyano-biphenyl-4-yl)-2-({(S)-3-[4-(3,4-dichloro-benzyloxy)-phenyl]-7-[4-methyl-2-(2,2,2-trifluoro-acetylamino)-thiazole-5-sulfonyl]-2,3,6,7,8,9-hexahydro-[1,4]dioxino[2,3-g]isoquinoline-8-carbonyl}-amino)-propionic acid] was tested, and the EC50 was 259 nM.
For `Cc1nccc(-c2ccc(C[C@H](NC(=O)[C@@H]3Cc4cc5c(cc4CN3C(=O)c3ccccn3)O[C@@H](c3ccc(OCc4ccc(Cl)c(Cl)c4)cc3)CO5)C(=O)O)cc2)c1C` [Example 236, (S)-2-{[(3S,8S)-3-[4-(3,4-Dichloro-benzyloxy)-phenyl]-7-(pyridine-2-carbonyl)-2,3,6,7,8,9-hexahydro-[1,4]dioxino[2,3-g]isoquinoline-8-carbonyl]-amino}-3-[4-(2,3-dimethyl-pyridin-4-yl)-phenyl]-propionic acid], the EC50 was 56 nM.
`CC[C@H](NC(=O)N1Cc2cc3c(cc2C[C@H]1C(=O)N[C@@H](Cc1ccc(-c2ccnc(C)c2C)cc1)C(=O)O)OC[C@H](c1ccc(OCc2ccc(Cl)c(Cl)c2)cc1)O3)c1ccccc1` [Example 245, (S)-2-{[(3S,8S)-3-[4-(3,4-Dichloro-benzyloxy)-phenyl]-7-((S)-1-phenyl-propylcarbamoyl)-2,3,6,7,8,9-hexahydro-[1,4]dioxino[2,3-g]isoquinoline-8-carbonyl]-amino}-3-[4-(2,3-dimethyl-pyridin-4-yl)-phenyl]-propionic acid] gave an EC50 of 203 nM.
